Calls of active or inactive are those of the source. The calls are words filed in the database; no cut-off is given here.
What was measured:
[1] = target: Lactoylglutathione lyase (Mus musculus) (UniProt Q9CPU0); test: […] inhibitory activity against glyoxalase I in mouse liver; no inhibition; format: functional
[2] = test system: Lactoylglutathione lyase (Ovis aries); test: […] inhibitory activity against glyoxalase I in sheep liver; no inhibition
[3] = target: T1, Lactoylglutathione lyase (Rattus norvegicus) (UniProt Q6P7Q4); test: […] inhibitory activity against glyoxalase I in rat liver; no inhibition; format: functional
T1 sequence (whole entry): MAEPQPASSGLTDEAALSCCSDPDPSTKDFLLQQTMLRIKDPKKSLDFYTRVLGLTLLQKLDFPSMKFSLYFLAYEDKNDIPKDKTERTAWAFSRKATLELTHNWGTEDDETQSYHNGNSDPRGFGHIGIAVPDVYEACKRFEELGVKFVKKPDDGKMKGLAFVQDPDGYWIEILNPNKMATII

[4] = target: T1, Lactoylglutathione lyase (Rattus norvegicus); test: In vivo inhibitory activity against glyoxalase I in rat liver; format: functional; settings: concentration not given here
[5] = target: Hydroxyacylglutathione hydrolase, mitochondrial (Rattus norvegicus, UniProt O35952); test: (§1) […] inhibitory activity against glyoxalase II in rat liver
[6] = target: Hydroxyacylglutathione hydrolase, mitochondrial (Rattus norvegicus) (UniProt O35952); test: as §1; format: functional; settings: concentration not given here

Lactoylglutathione lyase (Mus musculus), sequence (Q9CPU0 2-184 limits assumed): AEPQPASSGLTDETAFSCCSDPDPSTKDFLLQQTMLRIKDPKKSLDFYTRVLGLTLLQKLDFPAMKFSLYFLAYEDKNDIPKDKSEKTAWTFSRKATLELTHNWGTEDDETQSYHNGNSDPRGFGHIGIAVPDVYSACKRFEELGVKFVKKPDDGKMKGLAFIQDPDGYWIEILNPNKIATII

Question: For `N[C@@H](CCC(=O)N[C@@H](CSC(=O)OCc1ccccc1)C(=O)NCC(=O)O)C(=O)O`, which Activity [1] is on record?
Answer: inactive

Question: And the Activity [2]?
Answer: inactive

Question: What about the Activity [3] of the same compound?
Answer: inactive

Question: And the inhibition [4]?
Answer: < 10%

Question: And the Ki [5]?
Answer: 65 µM

Question: What about the inhibition [6] of the same compound?
Answer: > 50%

— ChEMBL document CHEMBL1122424, “S-carbobenzoxyglutathione: a competitive inhibitor of mammalian glyoxalase II” (J Med Chem, 1983)
